Measurements as given in patent publication US20100240642A1, “1H-Indole-2-Carboxylic Acid Derivatives Useful As PPAR Modulators” (SMITHKLINE BEECHAM CORPORATION, priority 2006, published 2010).
Counter-ions that a name gives are not always drawn.

Test system: Male Zucker Diabetic Fatty rats
Test: In vivo evaluation: serum glucose in Zucker Diabetic Fatty rats
Parameters: species or system rat
Conditions: 10 mg/kg once daily by oral gavage, 28 days, percent reduction from vehicle control at day 28 relative to normalization (140 mg/dL)
Protocol: Male Zucker Diabetic Fatty rats were lightly anesthetized with isofluorane gas and bleed by tail vein to obtain postprandial baseline concentrations for serum glucose, serum lipids and insulin. Animals were baseline matched by serum glucose and randomized into vehicle or treatment groups with compound administration by oral gavage beginning at 6.5 weeks of age. Selected compounds were administered once daily at 10 mg/kg in 25 mM N-Methyl-Glucamine with 5% w/v Solutol HS15. After 28 consecutive days of treatment, blood samples were obtained and analyzed for serum glucose. Values in Table 1 for % Glucose reduction represent a summary of the percent reduction from vehicle control animals at day 28 relative to normalization defined in this model as serum glucose levels of 140 mg/dL.

| SMILES | % Glucose Reduction |
| --- | --- |
| COCCOc1cc(Cn2c(C(=O)O)c(-c3ccc(C(C)(C)C)cc3)c3ccccc32)cc(OCC2CC2)c1 [Example 2, 1-[(3-[(cyclopropylmethyl)oxy]-5-{[2-(methyloxy)ethyl]oxy}phenyl)methyl]-3-[4-(1,1-dimethylethyl)phenyl]-1H-indole-2-carboxylic acid] | 96% |
| Cc1ccc(-c2ccc(C(=O)O)cc2)cc1Cn1c(C(=O)O)c(-c2ccc(C(C)(C)C)cc2)c2ccccc21 [Example 11, 1-[(4′-carboxy-4-methyl-3-biphenylyl)methyl]-3-[4-(1,1-dimethylethyl)phenyl]-1H-indole-2-carboxylic acid] | 49% |

Target: T1, hPPARγ receptor (Homo sapiens, UniProt P37231)
T1 construct: expressed in transfected cells; host or cells: CV-1 (African Green Monkey kidney, ATCC CCL-70)
T1 sequence (P37231 172-475 isoform P37231-2): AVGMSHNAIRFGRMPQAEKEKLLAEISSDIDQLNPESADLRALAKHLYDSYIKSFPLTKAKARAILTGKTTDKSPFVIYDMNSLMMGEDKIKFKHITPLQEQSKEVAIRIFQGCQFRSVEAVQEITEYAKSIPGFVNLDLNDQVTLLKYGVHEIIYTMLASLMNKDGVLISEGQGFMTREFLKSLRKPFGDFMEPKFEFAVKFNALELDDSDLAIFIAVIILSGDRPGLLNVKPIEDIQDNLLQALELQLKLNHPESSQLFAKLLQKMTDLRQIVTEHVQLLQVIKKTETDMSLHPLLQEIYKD
Test: PPARγ Cell-based luciferase assay
Conditions: CV-1, read-out: agonism of the hPPARγ receptor (activation relative to full agonist rosiglitazone)
Description: Plasmids—PCR primers containing Kpnl and BamHI restriction sites were used to amplify PPARγ ligand binding domain (LBD) fragment (172-475) from a full-length human clone. The LBD fragment was ligated into the multiple cloning site of pFA-CMV (Stratagene). The resulting construct (pFA-CMV-GAL4-hPPARγLBD carried a fusion of the LBD with the yeast-derived GAL4 DNA-binding domain under the control of the CMV immediate early promoter. Reporter construct UAStkLuc carries a single 17 bp (CGGAGTACTGTCCTCCG) upstream activating sequence (UAS), the tk minimal promoter, and the firefly luciferase gene. The integrity of each construct was confirmed by diagnostic restriction digestion and by sequencing. Plasmid DNA was prepared using Qiagen Maxi-Prep kits.
PPARγ Cell-based luciferase assay—African Green Monkey kidney cell line CV-1 (ATCC CCL-70) was maintained in Dulbecco's Modified Eagle's Medium (D-MEM) containing 10% fetal bovine serum, 2 mM glutamine, and 1% penicillin/streptomycin (pen/strep). In preparation for luciferase assays, CV-1 cells were grown in charcoal-stripped cell medium containing D-MEM/F-12 medium supplemented with 5% or 3% dextran-treated/charcoal-stripped (CS) fetal bovine serum, 2 mM glutamine, with or without 1% pen/strep, as described below. CS fetal bovine serum was purchased from Hyclone; all other cell culture reagents were from Gibco.
The luciferase protocol is a multi-day procedure. On day 1, confluent cells in maintenance medium were subcultured 1:10 into T-175 cm^2 flasks containing 50 mL of 3% CS medium with pen/strep. These flasks were allowed to incubate at 5% CO2 and 37° C. for 72 hours.
Cells were harvested by trypsinization and then transfected using FuGENE (Roche) according to the manufacturer's specifications. Briefly, each transfection contained 0.55 μg pFA_CMV_GAL4_hPPARγ_LBD plasmid, 10.9 μg UAStkLUC, and 24 μg pBluescript (carrier DNA). Plasmid DNA was mixed with FuGENE in OptiMEM-1 medium and incubated for 30 min at room temperature. During this incubation, cells were harvested into 3% CS medium without pen-strep and dispensed at 14 million cells per T-175 cm^2 flask. Transfection mixes were added to the flasks and incubated overnight at 5% CO2 and 37° C.
Transfected cells were added to 384-well plates containing pharmacological agents. Rosiglitazone standard was reconstituted in DMSO at 1 mM. For 11-point dose-response experiments, the compounds were 3-fold serially diluted in DMSO and then stamped to 384-well assay plates (NUNC, catalog #164564) at 0.5 μL/well using a Beckman FX. DMSO and agonist control compound Rosiglitazone (1 mM) were each stamped at 0.5 μL/well to columns 23 and 24, respectively, of the 384-well plates. Transfected cells were harvested in 5% CS medium with pen/strep and dispensed at 10,000 cells/well (50 μL) onto the prepared 384-well compound plates using a Titertek Multidrop. Following overnight incubation at 5% CO2 and 37° C., Steady-Glo reagent (Promega) was added to the assay plates using a Multidrop. Plates were incubated for 10 min to ensure complete cell lysis and read in a ViewLux (PerkinElmer). […] Partial agonism is defined here as 20-80% activation (relative to full agonist rosiglitazone) at concentrations of 10^−6 M or less.

| SMILES | Emax |
| --- | --- |
| COCCOc1cc(Cn2c(C(=O)O)c(-c3ccc(C(C)(C)C)cc3)c3ccccc32)cc(OC(=O)N2CCNC2=O)c1 [Example 53, 3-[4-(1,1-dimethylethyl)phenyl]-1-[(3-{[2-(methyloxy)ethyl]oxy}-5-{[(2-oxo-1-imidazolidinyl)carbonyl]oxy}phenyl)methyl]-1H-indole-2-carboxylic acid] | 20 to 80% |

Same assay, conditions: CV-1 cells transfected with GAL4-hPPARγ LBD and UAStkLuc; at concentrations of 10^−6 M or less; read-out: agonism of the hPPARγ receptor (activation relative to full agonist rosiglitazone)

| SMILES | Emax |
| --- | --- |
| COCCOc1cc(Cn2c(C(=O)O)c(-c3ccc(C(C)(C)C)cc3)c3ccccc32)cc(OCC2CC2)c1 [Example 2, 1-[(3-[(cyclopropylmethyl)oxy]-5-{[2-(methyloxy)ethyl]oxy}phenyl)methyl]-3-[4-(1,1-dimethylethyl)phenyl]-1H-indole-2-carboxylic acid] | 20 to 80% |
| Cc1ccc(-c2ccc(C(=O)O)cc2)cc1Cn1c(C(=O)O)c(-c2ccc(C(C)(C)C)cc2)c2ccccc21 [Example 11, 1-[(4′-carboxy-4-methyl-3-biphenylyl)methyl]-3-[4-(1,1-dimethylethyl)phenyl]-1H-indole-2-carboxylic acid] | 20 to 80% |
| COCCOc1cc(Cn2c(C(=O)O)c(-c3ccc(C(C)(C)C)cc3)c3ccccc32)cc(OC(=O)N2CCCCC2)c1 [Example 51, 3-[4-(1,1-dimethylethyl)phenyl]-1-({3-{[2-(methyloxy)ethyl]oxy}-5-[(1-piperidinylcarbonyl)oxy]phenyl}methyl)-1H-indole-2-carboxylic acid] | 20 to 80% |
| COCCOc1cc(Cn2c(C(=O)O)c(-c3ccc(C(C)(C)C)cc3)c3ccccc32)cc(OC(=O)N2CCOCC2)c1 [Example 52, 3-[4-(1,1-dimethylethyl)phenyl]-1-({3-{[2-(methyloxy)ethyl]oxy}-5-[(4-morpholinylcarbonyl)oxy]phenyl}methyl)-1H-indole-2-carboxylic acid] | 20 to 80% |
| O=C(O)c1c(Cc2cccc(C(F)(F)F)c2)c2ccccc2n1Cc1cc(OCCn2cccc2)cc(OCC2CC2)c1 [Example 54, 1-[(3-[(cyclopropylmethyl)oxy]-5-{[2-(1H-pyrrol-1-yl)ethyl]oxy}phenyl)methyl]-3-{[3-(trifluoromethyl)phenyl]methyl}-1H-indole-2-carboxylic acid] | 20 to 80% |
| COCCOCCCOc1cc(Cn2c(C(=O)O)c(Cc3cccc(C(F)(F)F)c3)c3ccccc32)cc(OCC2CC2)c1 [Example 55, 1-({3-[(cyclopropylmethyl)oxy]-5-[(3-{[2-(methyloxy)ethyl]oxy}propyl)oxy]phenyl}methyl)-3-{[3-(trifluoromethyl)phenyl]methyl}-1H-indole-2-carboxylic acid] | 20 to 80% |
| COCCOc1cc(Cn2c(C(=O)O)c(Cc3cccc(C(F)(F)F)c3)c3ccccc32)cc(OCC2CC2)c1 [Example 56, 1-[(3-[(cyclopropylmethyl)oxy]-5-{[2-(methyloxy)ethyl]oxy}phenyl)methyl]-3-{[3-(trifluoromethyl)phenyl]methyl}-1H-indole-2-carboxylic acid] | 20 to 80% |
| CN(C)CCCOc1cc(Cn2c(C(=O)O)c(Cc3cccc(C(F)(F)F)c3)c3ccccc32)cc(OCC2CC2)c1 [Example 57, 1-[(3-[(cyclopropylmethyl)oxy]-5-{[3-(dimethylamino)propyl]oxy}phenyl)methyl]-3-{[3-(trifluoromethyl)phenyl]methyl}-1H-indole-2-carboxylic acid hydrochloride] | 20 to 80% |
| COCCOc1cc(Cn2c(C(=O)O)c(Cc3cccc(C(F)(F)F)c3)c3ccccc32)cc(OCCOC)c1 [Example 58, 1-[(3,5-bis{[2-(methyloxy)ethyl]oxy}phenyl)methyl]-3-{[3-(trifluoromethyl)phenyl]methyl}-1H-indole-2-carboxylic acid] | 20 to 80% |
| O=C(O)c1c(Cc2cccc(C(F)(F)F)c2)c2ccccc2n1Cc1cc(OCC2CC2)cc(OCC2CC2)c1 [Example 59, 1-({3,5-bis[(cyclopropylmethyl)oxy]phenyl}methyl)-3-{[3-(trifluoromethyl)phenyl]methyl}-1H-indole-2-carboxylic acid] | 20 to 80% |
| COCCOc1cc(Cn2c(C(=O)O)c(-c3cc4ccccc4o3)c3ccccc32)cc(OCCOC)c1 [Example 60, 3-(1-benzofuran-2-yl)-1-[(3,5-bis{[2-(methyloxy)ethyl]oxy}phenyl)methyl]-1H-indole-2-carboxylic acid] | 20 to 80% |
| COCCOc1cc(Cn2c(C(=O)O)c(Oc3ccc(C(C)(C)C)cc3)c3ccccc32)cc(OCCOC)c1 [Example 61, 1-[(3,5-bis{[2-(methyloxy)ethyl]oxy}phenyl)methyl]-3-{[4-(1,1-dimethylethyl)phenyl]oxy}-1H-indole-2-carboxylic acid] | 20 to 80% |
| COCCOc1cc(Cn2c(C(=O)O)c(Nc3ccc(C(C)(C)C)cc3)c3ccccc32)cc(OCCOC)c1 [Example 62, 1-[(3,5-bis{[2-(methyloxy)ethyl]oxy}phenyl)methyl]-3-{[4-(1,1-dimethylethyl)phenyl]amino}-1H-indole-2-carboxylic acid] | 20 to 80% |
| CC(C)(C)c1ccc(-c2c(C(=O)O)n(Cc3cc(C(F)(F)F)cc(C(F)(F)F)c3)c3ccccc23)cc1 [Example 63, 1-{[3,5-bis(trifluoromethyl)phenyl]methyl}-3-[4-(1,1-dimethylethyl)phenyl]-1H-indole-2-carboxylic acid] | 20 to 80% |
| COCCOc1cc(Cn2c(C(=O)O)c(-c3ccc(C(C)(C)C)cc3)c3ccccc32)cc(C(F)(F)F)c1 [Example 64, 3-[4-(1,1-dimethylethyl)phenyl]-1-{[3-{[2-(methyloxy)ethyl]oxy}-5-(trifluoromethyl)phenyl]methyl}-1H-indole-2-carboxylic acid] | 20 to 80% |
| CC(C)(C)c1ccc(-c2c(C(=O)O)n(Cc3cc(OCC4CC4)cc(C(F)(F)F)c3)c3ccccc23)cc1 [Example 65, 1-{[3-[(cyclopropylmethyl)oxy]-5-(trifluoromethyl)phenyl]methyl}-3-[4-(1,1-dimethylethyl)phenyl]-1H-indole-2-carboxylic acid] | 20 to 80% |
| COCCOc1cc(Cn2c(C(=O)O)c(-c3ccc(C(C)(C)C)cc3)c3ccccc32)cc(OCCOC)c1 [Example 66, 1-[(3,5-bis{[2-(methyloxy)ethyl]oxy}phenyl)methyl]-3-[4-(1,1-dimethylethyl)phenyl]-1H-indole-2-carboxylic acid] | 20 to 80% |
| COCCOc1cc(Cn2c(C(=O)O)c(-c3ccc(C(C)(C)C)cc3)c3ccccc32)cc(OCc2ccccc2)c1 [Example 67, 3-[4-(1,1-dimethylethyl)phenyl]-1-({3-{[2-(methyloxy)ethyl]oxy}-5-[(phenylmethyl)oxy]phenyl}methyl)-1H-indole-2-carboxylic acid] | 20 to 80% |
